The source of these data is patent EP4094762A1, “TREATMENT OF NEUROLOGICAL INDICATIONS” (UCL Business Ltd, priority 2021, dated 2022).

Where two headings read alike, the source gives them in different places. Marks after values point to notes of the source that are not given here.

As a reminder, the IC50 is the point on the concentration scale where inhibition reaches its midpoint.

A short description of data set [1]: In vivo pharmacodynamic EEG study after oral administration. The arrangement: species or system Sprague-Dawley rats. The note with it: rat, 10mg/kg orally. The text has this:
Study to assess in vivo pharmacodynamic activity of BPTU (S1) in the CNS of rats following oral administration.
Pre-surgery: The animals were allowed a minimum period of 7 days acclimatisation on arrival in the facility.
Surgery: Male Sprague-Dawley rats were anaesthetised with isoflurane (2-5% in Oxygen at 11/min) throughout the procedure. The scalp, neck and right flank were cleared of hair using clippers and cleaned using diluted Hibitane (50% (v/v) in water). A non-steroidal anti-inflammatory agent was administered (Carprofen 5mg/kg, s.c.) and the animals placed on a homeothermic blanket (37 °C) with the head fixed in a stereotaxic frame. Incisions were made in the scalp and neck, as well as in the right flank. Blunt dissection of the abdominal muscle was then made to gain access to the peritoneal cavity. A radio transmitter (HD-S02, Data Sciences International) was implanted with the body of the transmitter placed in the peritoneal cavity and secured to the muscle wall with non-absorbable sutures through the body of the transmitter. The wires of the transmitter were passed through the muscle wall and then sub-dermally using a trochar (16G needle) to the scalp to act as EEG/EMG electrodes. The scalp was cleared of connective tissue and two bore holes were made in the skull with a trepanning drill (fronto-parietal coordinates: Bregma +2mm anterior, midline +1.0mm lateral and Lambda 0mm, +1.5mm lateral). The positive EEG electrode was attached to the anterior bore hole and the negative EEG electrode to the posterior bore hole. Both electrodes were secured in place using a suitable adhesive agent (Cyanoacrylate gel, RS components). A second set of electrodes were sutured into the nuchal muscle to act as EMG electrodes. All incisions were closed using absorbable suture. The animals were allowed to recover in a warm environment and given 5ml of saline s.c. The animals were kept singly in the cage until next day, then pair housed for the duration of post-surgical recovery (min 7 days). During the recovery period, the rats received 5 days of standard post-operative care with no further experimental procedures until the pre-operative body weight was regained. The animals were maintained on a 12/12hr light dark cycle after the surgery.
Testing: On study days, the animals were placed in recording boxes individually and EEG/EMG as well as locomotor activity were recorded for 0.5 h before and 24 h after each dosing. […]
The subsequent EEG/EMG recordings were automatically scored (see Table below for sleep stage definitions) as wake, non-REM (NREM) sleep, or REM sleep in 10 second epochs using SleepSign (Kissei Comtec, Japan).
Power spectral analysis was performed on EEG data recorded over the first 3 h. […]

The next data set concerns the target T1, P2Y1 receptor (Homo sapiens, UniProt P47900).
T1 construct: expressed in transfected cells
The data set is described as follows: Cell based HTRF assay measuring IP1 accumulation; antagonism of the P2Y1 agonist MRS2365. The note with it: rounded to nearest whole number. The procedure:
IC50 values were determined using a cell based assay in stably transfected cells overexpressing the P2Y1 receptor. The assay system is a high throughput […] assay measuring accumulation of the intracellular messenger inositol monophosphate (IP1), generated intracellularly following activation of P2Y1.
P2Y1 overexpressing cells were maintained in T175 flasks. The day before the assay, these cells were split and 20µl cell suspension transferred to each well of white 384-well assay plates at a cell density of 0.5x10^6 cells/mL. Plates were pulse centrifuged, then incubated overnight at 37°C / 5% CO2 prior to assay.
On day of assay, medium was removed from cells and replaced with stimulation buffer. […] Positive control antagonist curves with standard compounds were included on each plate. Plates were incubated with antagonists for 1 hour prior to addition of 5nM of the agonist MRS2365, dispensed using a Bravo liquid handler. Following agonist addition, plates were incubated for 60 minutes prior to assay. Both incubations were carried out at 37°C / 5% CO2.
For the assay, IP1 accumulation was quantified using the IPOne kit according to manufacturer's instructions. In short, a standard curve was prepared for IP1 quantification, and cells lysed using kit lysis buffer. Assay reagents were added to the lysates, and incubated for 1 hour at room temperature without spinning or shaking. Plates were analysed on a BMG Pherastar plate reader, and IP1 signal generated in cells interpolated from the standard curve.

A short description of data set [2]: CNS penetration: intravenous cassette pharmacokinetic study, brain and plasma by LC-MS/MS. The note with it: mouse; for CNS penetrant (asterisk): in vivo; for CNS penetration (in words): intravenous; for CNS penetration: total brain to plasma ratio: t = 2 hr, 0.4mg/kg intravenous.
Procedure: To assess penetration of compounds into the mouse central nervous system, intravenous pharmacokinetic studies were undertaken in C57B16/J mice. […] Compounds were then combined into a single dosing solution and administered together via the intravenous route into 24 mice. Total compound dose administered to each mouse was 2mg/kg. Mice were culled at various times post dosing and brain and plasma collected for bioanalysis. In particular, mice were culled and plasma collected for bioanalysis at 8 time points out to 24 hours post dosing. Brains were also collected for bioanalysis at various time points to assess CNS penetration. 2 hour and 4 hour brain collection was carried out in all studies. Additional time points were collected in selected studies.
For bioanalysis, compounds were prepared in DMSO and aliquoted together to ensure a final concentration of 1mg/mL per compound in DMSO. Analytical standards were prepared from the initial 1mg/mL stock solution of compound, with a 12-point standard curve range from 0.5ng/mL to 2000ng/mL, with independent quality control tests from 1ng/mL to 1000ng/mL run to validate the standards. All standards and QC samples were matrix matched to eliminate possible suppression. Plasma samples were prepared with a 1:10 dilution in plasma. […] Dose solutions were diluted in a control matrix to a relative concentration that fell on the standard curve. Cold acetonitrile containing internal standard was added to all samples, standards, dose samples and QC samples; samples were then centrifuged for 30 minutes at 4000rpm. After centrifugation, supernatant was transferred to a new 96-well plate, diluted with an equal volume of water and mixed thoroughly before LC-MS analysis.
Supernatents were analysed by LC-MS/MS. From the analysis data a response ratio was obtained using the formula Response Ratio = Test Peak Area/Internal Standard Peak Area. From the standard curve, the test peak area was converted to concentration of test compound.
To establish CNS penetration, the ratio of the concentration of each compound in the plasma samples to the brain samples was assessed.

T1 sequence (P47900 whole entry): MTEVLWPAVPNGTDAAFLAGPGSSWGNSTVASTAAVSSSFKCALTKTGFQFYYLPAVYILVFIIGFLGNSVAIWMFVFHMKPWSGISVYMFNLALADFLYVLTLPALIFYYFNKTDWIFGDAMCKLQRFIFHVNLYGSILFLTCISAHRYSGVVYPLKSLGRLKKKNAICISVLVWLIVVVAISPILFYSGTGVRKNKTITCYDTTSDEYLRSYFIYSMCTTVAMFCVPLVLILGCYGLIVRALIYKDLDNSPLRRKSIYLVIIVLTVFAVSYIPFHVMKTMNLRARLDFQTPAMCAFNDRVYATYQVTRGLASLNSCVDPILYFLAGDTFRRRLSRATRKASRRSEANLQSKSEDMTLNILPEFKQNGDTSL

For the molecule `CC(C)(C)c1ccccc1Oc1ncccc1NC(=O)Nc1ccc(OC(F)(F)F)cc1` [BPTU, 1-(2-(2-(tert-butyl)phenoxy)pyridin-3-yl)-3-(4-(trifluoromethoxy)phenyl)urea], in data set [1] (during non-REM sleep), the “EEG power, delta band” value is “Significant increases” and the “EEG power, theta band” value is listed as “Significant increases”. Also, the “EEG power, gamma frequency band” value in data set [1] (during wake) is listed as “Significant increases”. In data set [1] (first three hours post dosing), the “changes in the EEG power spectrum” value is “significant changes”.

As for `Cc1c(Oc2ncccc2NC(=O)Nc2ccc(OC(F)(F)F)cc2)cccc1N1CCCCC1` [S9], the 50% inhibitory concentration (IC50) on P2Y1 receptor (read-out: IC50 IP1) is 0.122 µM. Further, the “CNS penetrant (asterisk)” value in data set [2] is “S9*”.

On to `CC(C)(C)c1ccccc1Oc1cccc(O)c1NC(=O)Nc1ccc(OC(F)(F)F)cc1` [S11, 1-(2-(2-(tert-butyl)phenoxy)-6-hydroxyphenyl)-3-(4-(trifluoromethoxy)phenyl)urea], for which the IC50 at P2Y1 receptor (read-out: IC50 IP1) came to 0.15 µM. Moreover, in data set [2], the “CNS penetrant (asterisk)” value was “S11*”.

For the molecule `Cc1ccc(NC(=O)Nc2ccc(OC(F)(F)F)cc2)c(Oc2ccccc2C(C)(C)C)n1` [RS2, 1-(2-(2-(tert-butyl)phenoxy)-6-methylpyridin-3-yl)-3-(4-(trifluoromethoxy)phenyl)urea, reference compound], the “CNS penetration (in words)” value in data set [2] is reported as “no apparent CNS penetration”.

As for `CC(C)(C)c1ccccc1Oc1ncccc1NC(=O)Nc1ccc(OC(F)(F)F)cc1` [S1 (BPTU), 1-(2-(2-(tert-butyl)phenoxy)pyridin-3-yl)-3-(4-(trifluoromethoxy)phenyl)urea], in data set [2] (C57B16/J, 0.4 mg/kg), the “CNS penetrant (asterisk)” value is recorded as “S1 (BPTU)*”.

On to `CC(C)(C)c1ccccc1Oc1ncccc1NC(=O)Nc1ccc(C(F)(F)F)s1` [S8, 1-(2-(2-(tert-butyl)phenoxy)pyridin-3-yl)-3-(5-(trifluoromethyl)thiophen-2-yl)urea], for which the IC50 on P2Y1 receptor (read-out: IC50 IP1) turned out to be 0.121 µM. In data set [2], the “CNS penetrant (asterisk)” value was “S8*”.

As to `O=C(Nc1ccc(OC(F)(F)F)cc1F)Nc1cccnc1Oc1ccccc1S(F)(F)(F)(F)F` [S14], the IC50 on P2Y1 receptor (read-out: IC50 IP1) came to 0.173 µM.

`CC(C)(C)c1ccccc1Oc1ncc(-c2ccc(C#N)cc2)cc1NC(=O)Nc1ccc(OC(F)(F)F)cc1` [S58]: on P2Y1 receptor (read-out: IC50 IP1), the IC50 was determined as 2.1 µM.

With `CC(C)(C)c1ccccc1Oc1ncccc1NC(=O)NCCc1ccccc1` [S43], the 50% inhibitory concentration (IC50) on P2Y1 receptor (read-out: IC50 IP1) is 0.958 µM.

As to `CC(C)(C)c1ccccc1Oc1ncccc1NC(=O)NCc1ccc(OC(F)(F)F)cc1` [S21], on P2Y1 receptor (read-out: IC50 IP1), the half-maximal inhibitory concentration (IC50) is 0.301 µM.

For the molecule `CC1(C)CN(c2ccccc2NC(=O)Nc2ccc(OC(F)(F)F)cc2)c2c(O)ccc(-c3ccc(Cl)cc3)c21` [compound 1, reference compound], on P2Y1 receptor (5nM MRS2365, read-out: IC50), the half-maximal inhibitory concentration (IC50) stood at 0.033 µM. Also, in data set [2], the “CNS penetration: total brain to plasma ratio” value is “BLLQ^d”.

In the case of `O=C(Nc1ccc(OC(F)(F)F)cc1)Nc1cccnc1Oc1ccccc1C1(C(F)(F)F)CC1` [S4, 1-(4-(trifluoromethoxy)phenyl)-3-(2-(2-(1-(trifluoromethyl)cyclopropyl)phenoxy)pyridin-3-yl)urea], at P2Y1 receptor (read-out: IC50 IP1), the IC50 is 0.058 µM. Moreover, the “CNS penetrant (asterisk)” value in data set [2] is given as “S4*”.

On to `CC1(C)CN(c2ccccc2NC(=O)Nc2ccc(OC(F)(F)F)cc2)c2c(O)ccc(-c3ccc(Cl)cc3)c21` [RS1, 1-(2-(4-(4-chlorophenyl)-7-hydroxy-3,3-dimethylindolin-1-yl)phenyl)-3-(4-(trifluoromethoxy)phenyl)urea, reference compound], for which the “CNS penetration (in words)” value in data set [2] is “no apparent CNS penetration”.

On to `CC(C)(C)c1ccc(O)c(Oc2ncccc2NC(=O)Nc2ccc(OC(F)(F)F)cc2)c1` [S42], for which, on P2Y1 receptor (read-out: IC50 IP1), the IC50 was found to be 0.948 µM.

As for `Cc1c(Oc2ncccc2NC(=O)Nc2ccc(OC(F)(F)F)cc2)cccc1N1CCOCC1` [S23], the IC50 at P2Y1 receptor (read-out: IC50 IP1) is 0.332 µM.

For the molecule `Cc1ccc(C)c(Oc2ncccc2NC(=O)Nc2ccc(OC(F)(F)F)cc2)c1` [S55], the half-maximal inhibitory concentration (IC50) at P2Y1 receptor (read-out: IC50 IP1) was found to be 1.97 µM.

As for `O=C(Nc1ccc(OC(F)(F)F)cc1)Nc1cccnc1Oc1ccccc1N1CCCCC1` [S33], at P2Y1 receptor (read-out: IC50 IP1), the IC50 came out at 0.632 µM.

For `O=C(Nc1ccc(OC(F)(F)F)cc1)Nc1cccnc1Oc1ccccc1` [S65], at P2Y1 receptor (read-out: IC50 IP1), the half-maximal inhibitory concentration (IC50) amounted to 2.86 µM.

In the case of `Cc1c(Oc2ncccc2NC(=O)Nc2ccc(OC(F)(F)F)cc2)cccc1-c1ccccc1` [S7], the half-inhibitory concentration (IC50) on P2Y1 receptor (read-out: IC50 IP1) is 0.099 µM.

`O=C(Nc1ccc(OC(F)(F)F)cc1)Nc1cccnc1Oc1cccc(N2CCOCC2)c1` [S83]: on P2Y1 receptor (read-out: IC50 IP1), the concentration for half-maximal inhibition (IC50) was found to be 8.73 µM.

With `Cc1ccc(NC(=O)Nc2ccc(OC(F)(F)F)cc2)c(Oc2ccccc2C(C)(C)C)n1` [compound 3, 1-(2-(2-(tert-butyl)phenoxy)-6-methylpyridin-3-yl)-3-(4-(trifluoromethoxy)phenyl)urea, reference compound], the IC50 at P2Y1 receptor (5nM MRS2365, read-out: IC50) stood at 0.036 µM. Moreover, in data set [2], the “CNS penetration: total brain to plasma ratio” value is reported as “BLLQ^d”.

`CC(C)(C)c1ccccc1Oc1ncc(-c2ccccc2)cc1NC(=O)Nc1ccc(OC(F)(F)F)cc1` [S79]: the IC50 at P2Y1 receptor (read-out: IC50 IP1) stood at 7.58 µM.

Take `CC(C)(C)c1ccccc1Sc1ncccc1NC(=O)Nc1ccc(OC(F)(F)F)cc1` [S3]: the IC50 on P2Y1 receptor (read-out: IC50 IP1) amounted to 0.057 µM.

In the case of `Cc1c(Oc2ncccc2NC(=O)Nc2ccc(OC(F)(F)F)cc2)cccc1N(C)C` [S12], the IC50 at P2Y1 receptor (read-out: IC50 IP1) came to 0.151 µM.

In the case of `O=C(Nc1ccc(OC(F)(F)F)cc1)Nc1cccnc1Oc1cccc(O)c1` [S52], the IC50 at P2Y1 receptor (read-out: IC50 IP1) came out at 1.41 µM.
